Measured values published in patent US20260365633A1, “Novel PEM Structures for SBX” (Roche Sequencing Solutions, Inc., priority 2023, published 2026).

Experiments:
DNA polymerase [1] = test: Primer extension with XNTPs, gel electrophoresis (PEM screen, 45mer template); assay type: biochemical; conditions: for primer extension products with XNTPs: 45mer template, FIG. 4, vs no PEM additive (up to only around 14 XNTPs)
Description: The Sequencing by Expansion (SBX) methodology developed by the inventors provides significant performance enhancements in sequence read efficiency and accuracy of Xpandomers relative to native DNA. However, initial transcription of the sequence of the natural DNA template onto the measurable Xpandomer relies on the ability of DNA polymerase to utilize XNTPs as substrates (the generalized structure of an XNTP is discussed herein with reference to FIG. 1A and FIG. 2). […] In an effort to improve the efficiency and accuracy of XNTP polymerization into Xpandomers, several PEMs were screened for the ability to enhance DNA polymerase primer extension reactions using XNTPs as substrates.
A representative primer extension reaction may include the following reagents: 2 pmol primer, 2.2 pmol 45mer [COMPOUND LEFT OUT] template, 50 pmol of each XNTP (XATP, XCTP, XGTP, and XTTP), 50 Mm Tris HCl, Ph 6.79, 200 Mm NaCl, 20% PEG, 5% NMS, 0.5 nmol polyphosphate 60.19, 0.3 Mm MnCl2, and 0.6 μg of purified recombinant DNA polymerase protein. Reactions may be run for 1 hour at 23 °C. Reaction products (i.e., constrained Xpandomers) are treated to cleave the phosphoramidate bonds, thereby generating linearized Xpandomers. Reaction products may be analyzed using gel electrophoresis on 4-12% acrylamide gels to resolve and visualize Xpandomer products of different lengths. For the PEM screen described above, PEMs were typically tested in the micro to millimolar range.

DNA polymerase [2] = test: SBX nanopore sequencing of primer extension products, histogram of aligned reads; assay type: biochemical
Description: To investigate the accuracy of PEM-dependent enhancement of XNTP polymerization, primer extension products were sequenced using the SBX protocol. Briefly, the constrained Xpandomer products of XNTP polymerization are cleaved to generate linearized Xpandomers. This is accomplished by first quenching the extension reaction with a solution containing 100 Mm EDTA, 2 Mm THPTA, and 2% Tween-20. Then the sample is subjected to amine modification with a solution of 1 M NaHCO3 and 1 M succinic anhydride in DMF. Cleavage of the phosphoramidate bonds is carried out with 37% HCl and linearized Xpandomers are purified with QIAquick columns (QIAGEN, Inc.).
For sequencing, protein nanopores are prepared by inserting a-hemolysin into a DphPE/hexadecane bilayer member in buffer B1, containing 2 M NH4Cl and 100 Mm HEPES, Ph 7.4. The cis well is perfused with buffer B2, containing 0.4 M NH4Cl, 0.6 M GuCl, and 100 Mm HEPES, Ph 7.4. The Xpandomer sample is heated to 70 °C for 2 minutes, cooled completely, then a 2 μL sample is added to the cis well. A voltage pulse of 90Mv/390Mv/10 μs is then applied and data is acquired via Labview acquisition software.
Sequence data is analyzed by histogram display of the population of sequence reads from a single SBX reaction. […] Representative histograms of SBX sequencing of a 45mer template are presented in FIG. 6A (no additive control) and FIG. 6B (SBX in the presence of PEM compound 1).

C4552 DNA polymerase = molecular target: T1, C4552 DNA polymerase (Saccharolobus solfataricus, UniProt Q97W02, A155G/A42V/D156R/D292Y/D294N/E291S/E324K/E325K/E327K/E79L/G187P/G299W/I153V/I189F/I248T/I295S/K152A/K317Q/K321Q/K56Y/K78D/L293W/M76W/N188Y/P184Q/Q82W/Q83G/R300S/S297Y/S86E/T290K/T301W/V289W/V296Q); test: Primer extension on HIV1, HIV2, HIV3 100mer templates with C4552 polymerase, gel; assay type: biochemical, Sulfolobus solfataricus; conditions: 0.5 Mm PEM, 30 minutes at 23 °C, three 100mer templates, FIG. 9
T1 construct: Tth SSB in reaction as additive
T1 sequence (Q97W02 1-340 A155G/A42V/D156R/D292Y/D294N/E291S/E324K/E325K/E327K/E79L/G187P/G299W/I153V/I189F/I248T/I295S/K152A/K317Q/K321Q/K56Y/K78D/L293W/M76W/N188Y/P184Q/Q82W/Q83G/R300S/S297Y/S86E/T290K/T301W/V289W/V296Q): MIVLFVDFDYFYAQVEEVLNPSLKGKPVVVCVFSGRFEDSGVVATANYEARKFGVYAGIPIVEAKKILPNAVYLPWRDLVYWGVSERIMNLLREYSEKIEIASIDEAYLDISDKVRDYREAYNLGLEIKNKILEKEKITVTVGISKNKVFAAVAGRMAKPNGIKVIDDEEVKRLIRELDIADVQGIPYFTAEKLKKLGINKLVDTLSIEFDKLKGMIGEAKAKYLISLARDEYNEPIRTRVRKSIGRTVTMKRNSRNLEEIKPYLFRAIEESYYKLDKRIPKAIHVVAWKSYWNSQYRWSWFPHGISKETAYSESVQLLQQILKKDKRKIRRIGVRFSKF
Method: PEM activity of compounds 9-11 was tested in primer extension assays using three 100mer templates, derived from the HIV1, 2, and 3 genomes. Primer extension reactions included the following reagents: 75 Mm TrisCl, Ph 8.44, 175 Mm NH40ac, 20% PEG8K, 5% NMS, 0.8 nmol PP-60.20, 0.6 Mm MnCl2, 2.3 μg Tth single-strand binding protein (SSB), 0.5 M or 1 M urea, 200 pmol each XNTP, 1.1 pmol template, 1 pmol [COMPOUND LEFT OUT] primer, 1.2 μg purified recombinant C4552 DNA polymerase, and 0.5 Mm PEM. 10 μL primer extension reactions were run for 30 minutes at 23 °C and reaction products were analyzed by gel electrophoresis.

nucleic acid polymerase = test: PEM activity summary: primer extension on 45mer, 100mer, 150mer, 222mer DNA templates, gel (Table 2); assay type: biochemical; conditions: preliminary functional characterization
Method: In some instances, the PEM compounds of the present disclosure were tested in primer extension reactions using DNA templates of the following lengths: A) 45mer; B) 100mer; C) 150mer; and D) 222mer.

SMILES	primer extension products with XNTPs (DNA polymerase [1])	Functional Category: PEM effect (nucleic acid polymerase)	also measured
O=C(O)c1ccc(-n2cc(-c3cccc(-c4cn(-c5ccc(C(=O)O)c(O)c5)nn4)n3)nn2)cc1O [Compound 1, 4,4′-(pyridine-2,6-diylbis(1H-1,2,3-triazole-4,1-diyl))bis(2-hydroxybenzoic acid)]	considerably longer extension products		accuracy of sequence reads (DNA polymerase [2]; 45mer template, FIG. 6B, vs no additive (not accurate past around base 18)): increased the accuracy of the sequence reads across the entire length of the 45mer template; sequence reads (DNA polymerase [2]; 60mer template, FIG. 7A): accurate sequence reads completely to the end; sequence reads (DNA polymerase [2]; 80mer template, FIG. 7B): accurate sequence reads completely to the end
O=C(O)c1ccc(-n2cc(-c3cncc(-c4cn(-c5ccc(C(=O)O)c(O)c5)nn4)c3)nn2)cc1O [Compound 2, 4,4′-(pyridine-3,5-diylbis(1H-1,2,3-triazole-4,1-diyl))bis(2-hydroxybenzoic acid)]			primer extension activity with XNTPs (DNA polymerase [1]; FIG. 5, PEM at various concentrations, vs no PEM additive): significantly enhances primer extension activity
O=C(O)c1ccc(-n2cc(-c3cccc(-c4cn(-c5ccc(C(=O)O)c(O)c5)nn4)c3)nn2)cc1O [Compound 3, 4,4′-(1,3-phenylenebis(1H-1,2,3-triazole-4,1-diyl))bis(2-hydroxybenzoic acid)]	considerably longer extension products		
O=C(O)c1ccc(-n2cc(-c3ccc4[nH]c5ccc(-c6cn(-c7ccc(C(=O)O)c(O)c7)nn6)cc5c4c3)nn2)cc1O [Compound 4, 4,4′-((9H-carbazole-3,6-diyl)bis(1H-1,2,3-triazole-4,1-diyl))bis(2-hydroxybenzoic acid)]	considerably longer extension products		
COc1cc(-c2cn(-c3ccc(C(=O)O)c(O)c3)nn2)nc(-c2cn(-c3ccc(C(=O)O)c(O)c3)nn2)c1 [Compound 9, 4,4′-((4-methoxypyridine-2,6-diyl)bis(1H-1,2,3-triazole-4,1-diyl))bis(2-hydroxybenzoic acid)]			XNTP polymerization efficiency relative to compound 1 (C4552 DNA polymerase): at least as efficiently as compound 1
O=C(O)c1ccc(-n2cc(-c3cc([N+](=O)[O-])cc(-c4cn(-c5ccc(C(=O)O)c(O)c5)nn4)n3)nn2)cc1O [Compound 11, 4,4′-((4-nitropyridine-2,6-diyl)bis(1H-1,2,3-triazole-4,1-diyl))bis(2-hydroxybenzoic acid)]			XNTP polymerization efficiency relative to compound 1 (C4552 DNA polymerase): at least as efficiently as compound 1
CCNC(=O)c1cc(-c2cn(-c3ccc(C(=O)NCC(=O)NCC(=O)O)c(C(F)(F)F)c3)nn2)nc(-c2cn(-c3ccc(C(=O)NCC(=O)NCC(=O)O)c(C(F)(F)F)c3)nn2)c1 [Compound 113, 2,2′-((2,2′-((4,4′-((4-(ethylcarbamoyl)pyridine-2,6-diyl)bis(1H-1,2,3-triazole-4,1-diyl))bis(2-(trifluoromethyl)benzoyl))bis(azanediyl))bis(acetyl))bis(azanediyl))diacetic acid]		PEM effect	
O=C(O)c1ccc(-n2cc(-c3cccc(-c4cn(-c5ccc(C(=O)O)c(O)c5)nn4)c3)nn2)cc1 [Compound 176, 4-(4-{m-[1-(p-Carboxyphenyl)-1H-1,2,3-triazol-4-yl]phenyl}-1H-1,2,3-triazol-1-yl)-2-hydroxybenzoic acid]		PEM effect	
CCNC(=O)c1cc(-c2cn(-c3ccc4cc(C(=O)O)ccc4c3)nn2)nc(-c2cn(-c3ccc4cc(C(=O)O)ccc4c3)nn2)c1 [Compound 206, 6-(4-{6-[1-(6-Carboxy-2-naphthyl)-1H-1,2,3-triazol-4-yl]-4-(N-ethylcarbamoyl)-2-pyridyl}-1H-1,2,3-triazol-1-yl)-2-naphthoic acid]		PEM effect	
CCNC(=O)c1cc(-c2cn(-c3ccc(C(=O)NCC)c(C(F)(F)F)c3)nn2)nc(-c2cn(-c3ccc(C(=O)NCC)c(C(F)(F)F)c3)nn2)c1 [Compound 236, N-Ethyl-2,6-bis{1-[4-(N-ethylcarbamoyl)-3-(trifluoromethyl)phenyl]-1H-1,2,3-triazol-4-yl}isonicotinamide]		PEM effect	
